Test results from PMC7842926, “Synergistic effect and ultrastructural changes in Trypanosoma cruzi caused by isoobtusilactone A in short exposure of time” (PLoS ONE, 2021).

Columns and labels:
[1] = system: amastigotes of T. cruzi (Dm28c); test: Antiproliferative assay on intracellular amastigotes in Vero host cells; assay type: cell-based, Trypanosoma cruzi
Method: To determine the antiproliferative effect of butanolides on intracellular amastigote forms (Dm28c), Vero cells were used as host cells. Vero cells were cultured in DMEM and maintained in a CO2 atmosphere at 37°C.
After 4 h of incubation for adherence and infection, the cells were washed with 1x phosphate buffered saline (PBS) and then incubated in DMEM for 20 h to allow differentiation of internalized trypomastigotes into amastigotes.
Vero cells infected with amastigotes were incubated for 4 or 24 h with the compounds (4 concentrations within the range 4–200 μM) in DMEM. After incubation, the cells were washed, fixed in methanol, stained with 4',6-Diamidino-2-phenylindole (DAPI), and photographed using Leica DMI 6000-B fluorescence microscope. The photos obtained were analyzed using the software ImageJ version 1.5 for quantification of total Vero cells and determination of the percentage of infected cells and number of amastigotes per cell. The 50% inhibitory concentration (IC50) was calculated using the infectivity index (II) described by Ceole et al.. DMSO (1%) treatment served as negative control and benznidazole treatment served as positive control.
(§1) The 50% cytotoxic concentration (CC50), x % inhibitory concentration (ICx = IC25, IC50, IC75, or IC90), and 50% lethal concentration (LC50) values were obtained from the percentage of inhibition/death versus log concentration of each compound, by nonlinear regression with variable slope and automatic withdrawal of outliers with ROUT coefficient (Q = 5). […] Graphpad Prism software version 7.04 was used for all regressions.

[2] = system: trypomastigotes infecting Vero cells; test: Infectivity assay (treatment before or during infection of Vero cells); assay type: cell-based, Trypanosoma cruzi
Method: The trypomastigotes were treated with isoobtusilactone A (LC50/4 h of trypomastigotes) for 4 h, while the control trypomastigotes were incubated with drug-free medium for 4 h. These trypomastigotes were then seeded into 96-well plates (4 × 10^4 parasites per well) with already adhered Vero cells at a ratio of 10 parasites per host cell.
After 20 h of infection, the infected Vero cell culture with intracellular amastigotes was fixed, stained with DAPI, photographed, and analyzed as described for antiproliferative assay.
Already adhered Vero cells were incubated with recently collected trypomastigotes for 4 h in a medium containing isoobtusilactone A (LC50/4 h of amastigotes) or in a drug-free medium (negative control). After 4 h, the host cells were washed and drug-free fresh medium was added. The cells were incubated for another 20 h and then fixed, stained, photographed, and analyzed as described above.

[3] = system: epimastigotes of T. cruzi (Dm28c, TcI); test: Epimastigote cell viability assay (MTS/PMS), Dm28c; assay type: cell-based, Trypanosoma cruzi
Method: Epimastigote forms of three strains of T. cruzi, including Dm28c (TcI), CL Brener (TcVI), and Y strain (TcII), were maintained in liver infusion tryptose (LIT) medium supplemented with 10% fetal bovine serum at 28°C [16] were kindly provided by Oswaldo Cruz Institute/Fiocruz. For the experiments, exponential phase cultures were used. All assays were performed in triplicates in 96-well plates.
The effect of the isolated compounds on the viability of epimastigote forms of Dm28c strain was determined by MTS [3-(4,5-dimethylthiazol-2-yl)-5-(3-carboxymethoxyphenyl)-2-(4-sulfophenyl)-2H-tetrazolium bromide] with PMS (5-methyl-phenazinium methyl sulfate) colorimetric assay, as described by Nunes et al.. […]
The absorbance of the formazan was measured at 490 nm using a microplate reader (Asys Expert Plus -Biochrom). In parallel, we determined the effect of 1% DMSO (negative control) and benznidazole (positive control) on the viability of epimastigotes and a replicate of each treatment was performed by fixing the epimastigotes with 4% paraformaldehyde prior to the addition of MTS/PMS (basal absorbance control).
as §1

[4] = system: Vero cells (CCL-81); design: method as in Nunes et al., 2020; details: 24 hours of treatment; confidence interval in brackets; ref Nunes et al., 2020; read-out: Vero cells (CCL-81) CC50 (CI); cited from earlier work
[5] = Cytotoxicity assay (MTT); assay type: cell-based; details: African green monkey (Cercopithecus aethiops), Vero cells (CCL-81); 4 h of treatment; read-out: Vero cells (CCL-81) CC50 - 4h (CI)
Method: Vero cells (CCL-81) isolated from the kidney of the African green monkey Cercopithecus aethiops were purchased from ATCC® (Washington DC, USA). The cells were inoculated in 200 μL of Dulbecco’s modified Eagle (DMEM) medium in 96-well plates at a concentration of 2 × 10^4 cells/well and incubated at 37°C for 24 h for adherence of the cells. Six different concentrations of the compounds (12 to 900 μM for butanolides, and 200 to 1,600 μM for benznidazole) were added to the wells. After 4 or 24 h of treatment, the cells were washed and cell viability was assessed using MTT (3-(4,5-Dimethylthiazol-2-yl)-2,5-Diphenyltetrazolium Bromide) assay (2 mg/mL). After 4 h of incubation at 37°C in a CO2 atmosphere, the wells were washed and 100% DMSO was added to solubilize the formazan crystals. The absorbance was measured at 570 nm using an ELISA plate reader (Biotek Model EL-800, VT, USA). DMSO (1%) treatment served as negative control and benznidazole treatment served as positive control.
as §1

[6] = system: trypomastigote forms of the parasite (Dm28c); test: microbe, parasite or virus in culture; assay type: cell-based
Method: Cell-derived trypomastigotes (Dm28c) were obtained from the supernatant of infected Vero cell cultures. Vero cells (9 × 10^5 cells/mL) and trypomastigotes were seeded at a ratio of 1:10 into culture bottles (75 cm^2) containing DMEM. After 4 h of incubation, the bottles were washed to remove unadhered trypomastigotes and incubated for another 96 h under CO2 atmosphere at 37°C. After 96 h of incubation, new trypomastigote forms were collected from the supernatant and used to perform the assays.
The lysis assay was performed in 96-well plates in technical triplicates (4 concentrations within the range 4–250 μM for butanolides and 200–1,600 μM for benznidazole), and the trypomastigotes (1 x 10^6 parasites/well) were incubated in 200 μL of DMEM (supplemented with 10% FBS, 100 μg/mL streptomycin, and 100 IU/mL penicillin) with the compounds at 37°C for 4 h. The test, negative control (1% DMSO), and positive control (benznidazole) parasites were fixed and counted in Neubauer's chamber.
as §1

[7] = system: Hep G2 cells; design: method as in PMID 22400995, PMID 18489163, PMID 17321026; details: cited from earlier work
[8] = treatment simultaneous to the infection, LC50/4 h of amastigote (20.75 μM)
[9] = trypomastigotes treated before infection, LC50/4 h of trypomastigote

C=C1OC(=O)/C(=C/CCCCCCCCCCCCC)[C@@H]1O [Isoobtusilactone A, isoobtusilactone A]
IC50 ([1]; Trypanosoma cruzi, Vero, 24 hours of treatment, confidence interval in brackets, read-out: Amastigotes (Dm28c) IC50 (CI)): 23 µM | SI (selectivity index) ([1]; Vero CC50 versus amastigote IC50, 24 hours): 6.81 | SI (selectivity index) ([1]; amastigotes, 4 h, Vero cells): 17.88 | reduction in the number of amastigotes per cell [2, 8]: 65% | reduction in the number of infected cells [2, 8]: 43% | reduction in the number of amastigotes per cell [2, 9]: ~40% | reduction in the number of infected cells [2, 9]: 20% | activity at concentrations below 50 μg/mL in epimastigotes ([3]; 72 h of treatment, Dm28c): exhibited activity | IC50 ([3]; Trypanosoma cruzi, 4 h of treatment, Na = not active, read-out: Epimastigotes (Dm28c) IC50 - 4h (CI)): 10.1 µM | SI (selectivity index) ([3]; Vero CC50 4 h versus epimastigote Dm28c IC50 4 h): 36.7 | CC50 [4]: 156 µM | CC50 at 4 h [5]: 371 µM | LC50 ([6]; Trypanosoma cruzi, 4 h of treatment, read-out: LC50 against trypomastigote forms (Dm28c)): 30.1 µM | SI (selectivity index) ([6]; trypomastigotes Dm28c, 4 h, Vero cells): 12.34 | effect on tumor cells [7]: inducing apoptosis
